Read-outs that look alike come from different tables or passages of the source.
Assays:
[1] = target: human CMV DNA polymerase UL54 (Human cytomegalovirus (strain AD169) (HHV-5) (Human herpesvirus 5), UniProt P08546); assay: CMV polymerase biochemical assay (molecular beacon-based)
Procedure, shortened: (§1)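 Full-length wild-type N-terminal MBP-fusion polymerases from sf9 cells were used at 100 pM (CMV) or 625 pM (HSV) in Tris pH 7.5, 10 mM MgCl2, and preincubated with inhibitor for 30 min at RT. Reactions with 1.25 uM each dNTP, 200 nM primer and 100 nM molecular beacon ran 60 min (CMV) or 20 min (HSV) at RT. Fluorescence was read at 480/535 nm and IC50 derived.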

[2] = target: human HSV DNA polymerase UL30 (Human herpesvirus 1 (strain 17) (HHV-1) (Human herpes simplex virus 1), UniProt P04293); assay: HSV polymerase biochemical assay (molecular beacon-based)
Procedure, shortened: as §1

[3] = test system: Luciferase-encoding HCMV, AD169 strain; assay: CMV Luciferase assay (cellular herpesvirus replication); assay type: cell-based
Procedure, shortened: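 Reporter HCMV AD169 with luciferase driven by late pp28 promoter, so signal requires viral DNA replication; NN-NHDF fibroblasts in 2% FBS medium, compound (0.0159–50 or 0.00318–10 μM, 0.5% DMSO) added 1 h before infection at MOI 1. Luminescence read 72 hpi; EC50 from 4-parameter fit of control-normalized %.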

[4] = Human betaherpesvirus 5, AD169, read-out: CMV-Luc Cellular EC50

| Structure (SMILES) | IC50 [1] | IC50 [2] | EC50 [3, 4] | EC50 ([3]; read-out: CMV-Luc Cellular EC50) |
| --- | --- | --- | --- | --- |
| Cc1cc(C(=O)NCc2ccc(C#N)cc2)c(=O)n2c1C(=O)N(CC1(S(=O)(=O)C3CC3)CC1)CC2 [Example 93-1, N-(4-cyanobenzyl)-2-((1-(cyclopropylsulfonyl)cyclopropyl)methyl)-9-methyl-1,6-dioxo-2,3,4,6-tetrahydro-1H-pyrido[1,2-a]pyrazine-7-carboxamide] | 0.0011 µM | 0.0467 µM | 0.0386 µM |  |
| CN1CCC(S(=O)(=O)C2(CN3CCn4c(ccc(C(=O)NCc5ccc(C#N)cc5)c4=O)C3=O)CC2)C1 (stereo not drawn) [Example 81-4] | 0.0233 µM | 0.474 µM | 1.08 µM |  |
| CC1(CS(=O)(=O)C2(CN3CCn4c(ccc(C(=O)NCc5ccc(Cl)cc5)c4=O)C3=O)CC2)COC1 [Example 103-1] | 0.0094 µM | 0.109 µM | 0.237 µM |  |
| N#Cc1ccc(CNC(=O)c2ccc3n(c2=O)CCN(CC2(S(=O)(=O)N4CC(F)(F)C4)CC2)C3=O)cc1 [Example 84-1, N-(4-cyanobenzyl)-2-((1-((3,3-difluoroazetidin-1-yl)sulfonyl)cyclopropyl)methyl)-1,6-dioxo-2,3,4,6-tetrahydro-1H-pyrido[1,2-a]pyrazine-7-carboxamide] | 0.0039 µM | 0.102 µM | 0.0696 µM |  |
| N#Cc1ccc(CNC(=O)c2cc(F)c3n(c2=O)CCN(CC2(S(=O)(=O)C4CC4)CC2)C3=O)cc1F [Example 162] | 0.0019 µM | 0.0796 µM | 0.0413 µM |  |
| CC(=O)N(C)C1(CN2CCn3c(ccc(C(=O)NCc4ccc(Cl)cc4)c3=O)C2=O)CC1 [Example 205] | 0.249 µM | 8.59 µM | 3.76 µM |  |
| CS(=O)(=O)CCCN1CCn2c(c(C#CCO)cc(C(=O)NCc3ccc(Cl)cc3)c2=O)C1=O [Example 156] | 0.913 µM | 2.11 µM | 50 µM |  |
| CC(C)(C#N)S(=O)(=O)C1(CN2CCn3c(ccc(C(=O)NCc4ccc(Cl)cc4)c3=O)C2=O)CC1 [Example 185, N-(4-chlorobenzyl)-2-((1-((2-cyanopropan-2-yl)sulfonyl)cyclopropyl)methyl)-1,6-dioxo-1,3,4,6-tetrahydro-2H-pyrido[1,2-a]pyrazine-7-carboxamide] | 0.0012 µM | 0.0295 µM | 0.0189 µM |  |
| O=C(NCc1ccc(Cl)cc1)c1ccc2n(c1=O)CCN(CCS(=O)(=O)C1CC1)C2=O [Example 193] | 0.0341 µM | 0.42 µM | 1.24 µM |  |
| N#Cc1ccc(CNC(=O)c2ccc3n(c2=O)CCN(CC2(S(=O)(=O)CC4(C#N)CC4)CC2)C3=O)cc1 [Example 111] | 0.0036 µM | 0.0595 µM | 0.433 µM |  |
| NS(=O)(=O)C1(CN2CCn3c(ccc(C(=O)NCc4ccc(Cl)cc4)c3=O)C2=O)CC1 [Example 72-2, N-(4-chlorobenzyl)-1,6-dioxo-2-((1-sulfamoylcyclopropyl)methyl)-2,3,4,6-tetrahydro-1H-pyrido[1,2-a]pyrazine-7-carboxamide] | 0.0012 µM | 0.0264 µM | 0.0502 µM |  |
| N#Cc1ccc(CNC(=O)c2ccc3n(c2=O)CCN(CC2(S(=O)(=O)C4(O)CC4)CC2)C3=O)cc1 [Example 196, N-(4-cyanobenzyl)-2-((1-((1-hydroxycyclopropyl)sulfonyl)cyclopropyl)methyl)-1,6-dioxo-1,3,4,6-tetrahydro-2H-pyrido[1,2-a]pyrazine-7-carboxamide] | 0.0077 µM | 0.205 µM | 0.509 µM |  |
| CC(C)S(=O)(=O)C1(CN2CCn3c(ccc(C(=O)NCc4ccc(Cl)cc4)c3=O)C2=O)CC1 [Example 31] | 0.0009 µM | 0.0306 µM | 0.0124 µM |  |
| O=C(NCc1ccc(Cl)cc1)c1cc(F)c2n(c1=O)CCN(CCN1CCCS1(=O)=O)C2=O [Example 163] | 0.0232 µM | 0.141 µM | 0.37 µM |  |
| CS(=O)(=O)N1CCC[C@@H]1CN1CCn2c(ccc(C(=O)NCc3ccc(Cl)cc3)c2=O)C1=O [Example 63] | 0.42 µM | 19.8 µM | 12.3 µM |  |
| N#Cc1ccc(CNC(=O)c2ccc3n(c2=O)CCN(CC2(S(=O)(=O)C4(C(F)(F)F)CC4)CC2)C3=O)cc1 [Example 97-1] | 0.005 µM | 0.122 µM | 0.222 µM |  |
| O=C(NCc1ccc(Cl)cc1)c1ccc2n(c1=O)CCN(CC1(C(=O)N3CCCC3)CC1)C2=O [Example 210] | 0.0257 µM | 0.428 µM | 0.494 µM |  |
| O=C(NCc1ccc(Cl)cc1)c1ccc2n(c1=O)CCN(CC1(S(=O)(=O)CC3CC3)CC1)C2=O [Example 107-1, N-(4-chlorobenzyl)-2-((1-((cyclopropylmethyl)sulfonyl)cyclopropyl)methyl)-1,6-dioxo-2,3,4,6-tetrahydro-1H-pyrido[1,2-a]pyrazine-7-carboxamide] | 0.0019 µM | 0.0616 µM | 0.111 µM |  |

| Structure (SMILES) | IC50 [1] | IC50 [2] | EC50 [3, 4] | EC50 ([3]; read-out: CMV-Luc Cellular EC50) |
| --- | --- | --- | --- | --- |
| O=C(NCc1ccc(Cl)cc1)c1ccc2n(c1=O)CCN(CCC1CCCS1(=O)=O)C2=O (stereo not drawn) [Example 50-1, N-(4-chlorobenzyl)-2-(2-(1,1-dioxidotetrahydrothiophen-2-yl)ethyl)-1,6-dioxo-2,3,4,6-tetrahydro-1H-pyrido[1,2-a]pyrazine-7-carboxamide] | 0.0356 µM | 0.188 µM | 0.306 µM |  |
| N#Cc1ccc(CNC(=O)c2ccc3n(c2=O)CCN(CC2(S(=O)(=O)CC4(C#N)CC4)CC2)C3=O)cc1F [Example 112] | 0.0022 µM | 0.0441 µM | 0.187 µM |  |
| CC1(CN2CCn3c(ccc(C(=O)NCc4ccc(Cl)cc4)c3=O)C2=O)COC1 [Example 57-1] | 2.66 µM | 31.3 µM | 29.2 µM |  |
| C[C@@H](NC(=O)c1ccc2n(c1=O)CCN(CC1(S(C)(=O)=O)CC1)C2=O)c1ccc(Cl)cc1 [Example 45] | 0.458 µM | 130 µM | 10 µM |  |
| CC(=O)NS(=O)(=O)C1(CN2CCn3c(ccc(C(=O)NCc4ccc(C#N)cc4)c3=O)C2=O)CC1 [Example 73-3] | 0.0016 µM | 0.0459 µM | 9.31 µM |  |
| O=C(NCc1ccc(Cl)cc1)c1ccc2n(c1=O)CCN(CC1(N3CCCC3=O)CC1)C2=O [Example 201, N-(4-chlorobenzyl)-1,6-dioxo-2-((1-(2-oxopyrrolidin-1-yl)cyclopropyl)methyl)-1,3,4,6-tetrahydro-2H-pyrido[1,2-a]pyrazine-7-carboxamide] | 0.182 µM | 4.06 µM | 4.81 µM |  |
| N#Cc1ccc(CNC(=O)c2ccc3n(c2=O)CCN(CC2(S(=O)(=O)CCCO)CC2)C3=O)cc1 [Example 24] | 0.0047 µM | 0.168 µM | 0.832 µM |  |
| CS(=O)(=O)C1(CN2CCn3c(ccc(C(=O)NCc4ccc(Cl)cc4)c3=O)C2=O)CCC1 [Example 49] | 0.0418 µM | 2.52 µM |  | 2.79 µM |
| CN(CCN1CCn2c(ccc(C(=O)NCc3ccc(Cl)cc3)c2=O)C1=O)C(=O)OC(C)(C)C [Example 54, tert-butyl (2-(7-((4-chlorobenzyl)carbamoyl)-1,6-dioxo-3,4-dihydro-1H-pyrido[1,2-a]pyrazin-2(6H)-yl)ethyl)(methyl)carbamate] | 0.292 µM | 1.93 µM | 4.34 µM |  |
| CS(=O)(=O)C1(CN2CCn3c(ccc(C(=O)NCc4ccc(F)cc4)c3=O)C2=O)CC1 [Example 47] | 0.02 µM | 0.393 µM | 0.783 µM |  |
| CC1Cn2c(ccc(C(=O)NCc3ccc(Cl)cc3)c2=O)C(=O)N1CCN(C)S(C)(=O)=O (stereo not drawn) [Example 92, N-(4-chlorobenzyl)-3-methyl-2-(2-(N-methylmethylsulfonamido)ethyl)-1,6-dioxo-2,3,4,6-tetrahydro-1H-pyrido[1,2-a]pyrazine-7-carboxamide] | 0.311 µM | 1.34 µM | 2.98 µM |  |
| COCC1(CN2CCn3c(ccc(C(=O)NCc4ccc(Cl)cc4)c3=O)C2=O)CC1 [Example 69, N-(4-chlorobenzyl)-2-((1-(methoxymethyl)cyclopropyl)methyl)-1,6-dioxo-2,3,4,6-tetrahydro-1H-pyrido[1,2-a]pyrazine-7-carboxamide] | 0.656 µM | 5.25 µM | 10 µM |  |
| N#Cc1ccc(CNC(=O)c2ccc3n(c2=O)CCN(CC2(S(=O)(=O)C4(CF)CC4)CC2)C3=O)cc1 [Example 13] | 0.0004 µM | 0.0283 µM | 0.0193 µM |  |
| Cc1nc(-c2cc(C(=O)NCc3ccc(Cl)cc3)c(=O)n3c2C(=O)N(CCS(C)(=O)=O)CC3)no1 [Example 159, N-(4-chlorobenzyl)-9-(5-methyl-1,2,4-oxadiazol-3-yl)-2-(2-(methylsulfonyl)ethyl)-1,6-dioxo-1,3,4,6-tetrahydro-2H-pyrido[1,2-a]pyrazine-7-carboxamide] | 1.78 µM | 5.66 µM | 26.6 µM |  |
| CC(CN1CCn2c(ccc(C(=O)NCc3ccc(C#N)cc3)c2=O)C1=O)S(=O)(=O)C1CC1 (stereo not drawn) [Example 192] | 0.194 µM | 3.01 µM | 8.05 µM |  |
| C[S@@+]([O-])C1(CN2CCn3c(ccc(C(=O)NCc4ccc(C#N)cc4)c3=O)C2=O)CC1 [Example 68-2] | 0.0622 µM | 2.73 µM | 2.86 µM |  |
| N#Cc1ccc(CNC(=O)c2ccc3n(c2=O)CCN(CC2(S(=O)(=O)[C@H]4CC4(F)F)CC2)C3=O)cc1 (single isomer, unassigned) [Example 100-1] | 0.0014 µM | 0.0482 µM | 0.0936 µM |  |
